Experiments:
Thromboxane A2 receptor = biological target: T1, Thromboxane A2 receptor (Homo sapiens, UniProt P21731); assay type: functional, cell-based
T1 sequence (P21731 whole entry): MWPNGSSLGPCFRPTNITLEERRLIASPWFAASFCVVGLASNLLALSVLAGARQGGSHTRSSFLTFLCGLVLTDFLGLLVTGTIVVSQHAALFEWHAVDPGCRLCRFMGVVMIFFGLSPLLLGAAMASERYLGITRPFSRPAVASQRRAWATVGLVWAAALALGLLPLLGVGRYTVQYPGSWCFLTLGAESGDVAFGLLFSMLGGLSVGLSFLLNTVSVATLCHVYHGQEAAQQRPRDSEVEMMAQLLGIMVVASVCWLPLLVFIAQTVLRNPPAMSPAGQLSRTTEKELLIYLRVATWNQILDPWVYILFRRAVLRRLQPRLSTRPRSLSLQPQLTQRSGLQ

Mu-type opioid receptor = Mu-type opioid receptor (Homo sapiens, UniProt P35372)
Mu-type opioid receptor, sequence (P35372 whole entry): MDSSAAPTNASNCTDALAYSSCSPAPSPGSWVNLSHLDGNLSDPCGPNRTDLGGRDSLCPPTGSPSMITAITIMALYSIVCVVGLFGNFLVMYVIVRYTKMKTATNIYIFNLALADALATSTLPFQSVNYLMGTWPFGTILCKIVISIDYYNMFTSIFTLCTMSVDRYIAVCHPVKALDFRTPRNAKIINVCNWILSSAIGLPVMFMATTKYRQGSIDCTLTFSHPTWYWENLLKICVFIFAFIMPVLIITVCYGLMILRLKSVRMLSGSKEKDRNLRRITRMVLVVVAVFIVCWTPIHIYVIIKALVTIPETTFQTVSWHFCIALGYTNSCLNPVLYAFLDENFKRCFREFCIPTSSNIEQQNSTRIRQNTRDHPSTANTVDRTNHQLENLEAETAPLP

[1] = biological target: Voltage-gated inwardly rectifying potassium channel KCNH2 (Homo sapiens, UniProt Q12809); assay type: functional; conditions: read-out: AC50
Voltage-gated inwardly rectifying potassium channel KCNH2, sequence (Q12809 whole entry): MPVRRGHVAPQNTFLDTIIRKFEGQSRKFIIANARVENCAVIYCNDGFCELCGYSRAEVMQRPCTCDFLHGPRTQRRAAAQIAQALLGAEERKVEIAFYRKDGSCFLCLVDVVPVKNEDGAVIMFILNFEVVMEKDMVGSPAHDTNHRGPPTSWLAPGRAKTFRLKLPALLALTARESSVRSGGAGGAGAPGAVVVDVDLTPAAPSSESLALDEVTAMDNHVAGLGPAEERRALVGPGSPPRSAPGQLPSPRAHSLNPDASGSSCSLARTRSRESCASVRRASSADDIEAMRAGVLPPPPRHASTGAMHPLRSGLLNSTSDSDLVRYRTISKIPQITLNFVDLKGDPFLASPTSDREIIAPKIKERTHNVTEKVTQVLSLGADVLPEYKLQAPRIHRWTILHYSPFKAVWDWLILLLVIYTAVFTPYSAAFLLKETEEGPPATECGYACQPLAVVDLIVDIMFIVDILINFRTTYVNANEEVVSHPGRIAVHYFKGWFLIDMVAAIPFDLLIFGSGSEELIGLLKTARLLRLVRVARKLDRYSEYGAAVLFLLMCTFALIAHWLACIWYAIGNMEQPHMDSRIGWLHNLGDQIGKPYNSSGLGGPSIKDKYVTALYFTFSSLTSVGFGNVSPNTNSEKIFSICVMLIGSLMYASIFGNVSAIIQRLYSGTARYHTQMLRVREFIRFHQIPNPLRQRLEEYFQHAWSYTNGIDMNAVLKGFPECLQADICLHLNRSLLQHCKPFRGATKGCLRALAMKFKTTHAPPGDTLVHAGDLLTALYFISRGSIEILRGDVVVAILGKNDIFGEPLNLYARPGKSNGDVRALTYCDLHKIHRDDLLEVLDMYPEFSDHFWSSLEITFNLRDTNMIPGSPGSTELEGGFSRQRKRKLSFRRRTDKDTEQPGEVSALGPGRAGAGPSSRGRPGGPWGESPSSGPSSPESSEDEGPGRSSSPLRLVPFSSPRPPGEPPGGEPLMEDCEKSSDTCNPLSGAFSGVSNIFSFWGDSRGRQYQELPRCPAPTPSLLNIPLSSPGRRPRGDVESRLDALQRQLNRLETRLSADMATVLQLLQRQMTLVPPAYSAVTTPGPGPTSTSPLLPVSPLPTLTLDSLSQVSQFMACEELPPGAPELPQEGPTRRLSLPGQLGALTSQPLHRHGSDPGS

[2] = biological target: T2, Amine oxidase [flavin-containing] A (Homo sapiens, UniProt P21397); assay type: functional
T2 sequence (P21397 whole entry): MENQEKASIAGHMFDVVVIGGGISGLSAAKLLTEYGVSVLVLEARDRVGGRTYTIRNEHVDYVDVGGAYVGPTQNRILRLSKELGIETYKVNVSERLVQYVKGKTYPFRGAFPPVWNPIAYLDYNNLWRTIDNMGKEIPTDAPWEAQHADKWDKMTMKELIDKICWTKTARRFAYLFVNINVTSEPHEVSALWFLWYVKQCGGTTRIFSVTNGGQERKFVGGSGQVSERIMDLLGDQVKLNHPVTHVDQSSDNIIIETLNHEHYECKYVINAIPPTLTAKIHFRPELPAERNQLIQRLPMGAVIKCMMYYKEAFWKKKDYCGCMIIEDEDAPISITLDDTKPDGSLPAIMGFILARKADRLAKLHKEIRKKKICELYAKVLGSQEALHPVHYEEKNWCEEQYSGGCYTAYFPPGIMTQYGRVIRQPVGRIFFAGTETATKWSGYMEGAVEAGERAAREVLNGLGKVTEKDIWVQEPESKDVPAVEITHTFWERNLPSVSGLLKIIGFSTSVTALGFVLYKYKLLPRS

[3] = biological target: 3',5'-cyclic-AMP phosphodiesterase 4A (Homo sapiens, UniProt P27815); assay type: functional
3',5'-cyclic-AMP phosphodiesterase 4A, sequence (P27815 whole entry): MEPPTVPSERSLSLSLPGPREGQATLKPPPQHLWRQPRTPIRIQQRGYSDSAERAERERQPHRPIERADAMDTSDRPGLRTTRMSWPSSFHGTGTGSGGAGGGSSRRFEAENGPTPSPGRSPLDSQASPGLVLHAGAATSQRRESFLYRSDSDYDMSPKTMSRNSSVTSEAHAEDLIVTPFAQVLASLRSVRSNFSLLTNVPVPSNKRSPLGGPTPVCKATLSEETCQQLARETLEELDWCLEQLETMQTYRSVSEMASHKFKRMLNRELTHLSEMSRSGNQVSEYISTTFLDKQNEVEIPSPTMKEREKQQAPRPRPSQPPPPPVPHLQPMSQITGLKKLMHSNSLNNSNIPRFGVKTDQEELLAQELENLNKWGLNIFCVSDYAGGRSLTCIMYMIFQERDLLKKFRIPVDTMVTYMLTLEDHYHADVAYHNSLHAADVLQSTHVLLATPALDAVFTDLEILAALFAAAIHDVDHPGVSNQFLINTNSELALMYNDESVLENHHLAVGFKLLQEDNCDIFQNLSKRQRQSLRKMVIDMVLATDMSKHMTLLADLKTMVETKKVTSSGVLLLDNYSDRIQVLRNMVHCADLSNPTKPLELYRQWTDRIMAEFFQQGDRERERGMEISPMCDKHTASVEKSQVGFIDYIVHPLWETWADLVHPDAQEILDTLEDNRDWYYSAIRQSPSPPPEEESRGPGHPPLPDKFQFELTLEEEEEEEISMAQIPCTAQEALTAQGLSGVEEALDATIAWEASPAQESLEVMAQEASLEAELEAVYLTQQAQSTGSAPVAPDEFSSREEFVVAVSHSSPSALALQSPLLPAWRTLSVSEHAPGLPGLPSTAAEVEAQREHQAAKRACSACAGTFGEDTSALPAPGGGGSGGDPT

[4] = biological target: T3, Alpha-1A adrenergic receptor (Homo sapiens, UniProt P35348); assay type: functional, cell-based
T3 sequence (P35348 whole entry): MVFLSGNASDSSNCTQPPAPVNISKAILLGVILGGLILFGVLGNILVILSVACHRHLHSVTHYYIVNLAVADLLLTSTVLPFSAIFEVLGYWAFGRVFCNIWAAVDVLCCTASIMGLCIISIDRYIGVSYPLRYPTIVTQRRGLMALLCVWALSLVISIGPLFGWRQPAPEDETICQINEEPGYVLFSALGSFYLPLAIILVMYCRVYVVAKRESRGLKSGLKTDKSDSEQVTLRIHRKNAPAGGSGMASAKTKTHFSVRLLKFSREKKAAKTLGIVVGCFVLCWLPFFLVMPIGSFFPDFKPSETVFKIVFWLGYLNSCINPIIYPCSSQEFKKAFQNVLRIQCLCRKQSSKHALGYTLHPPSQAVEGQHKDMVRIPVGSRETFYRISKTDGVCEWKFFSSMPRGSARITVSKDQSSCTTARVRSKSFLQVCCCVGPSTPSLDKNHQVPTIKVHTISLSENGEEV

[5] = biological target: cGMP-inhibited 3',5'-cyclic phosphodiesterase 3A (Homo sapiens, UniProt Q14432); assay type: functional
cGMP-inhibited 3',5'-cyclic phosphodiesterase 3A, sequence (Q14432 whole entry): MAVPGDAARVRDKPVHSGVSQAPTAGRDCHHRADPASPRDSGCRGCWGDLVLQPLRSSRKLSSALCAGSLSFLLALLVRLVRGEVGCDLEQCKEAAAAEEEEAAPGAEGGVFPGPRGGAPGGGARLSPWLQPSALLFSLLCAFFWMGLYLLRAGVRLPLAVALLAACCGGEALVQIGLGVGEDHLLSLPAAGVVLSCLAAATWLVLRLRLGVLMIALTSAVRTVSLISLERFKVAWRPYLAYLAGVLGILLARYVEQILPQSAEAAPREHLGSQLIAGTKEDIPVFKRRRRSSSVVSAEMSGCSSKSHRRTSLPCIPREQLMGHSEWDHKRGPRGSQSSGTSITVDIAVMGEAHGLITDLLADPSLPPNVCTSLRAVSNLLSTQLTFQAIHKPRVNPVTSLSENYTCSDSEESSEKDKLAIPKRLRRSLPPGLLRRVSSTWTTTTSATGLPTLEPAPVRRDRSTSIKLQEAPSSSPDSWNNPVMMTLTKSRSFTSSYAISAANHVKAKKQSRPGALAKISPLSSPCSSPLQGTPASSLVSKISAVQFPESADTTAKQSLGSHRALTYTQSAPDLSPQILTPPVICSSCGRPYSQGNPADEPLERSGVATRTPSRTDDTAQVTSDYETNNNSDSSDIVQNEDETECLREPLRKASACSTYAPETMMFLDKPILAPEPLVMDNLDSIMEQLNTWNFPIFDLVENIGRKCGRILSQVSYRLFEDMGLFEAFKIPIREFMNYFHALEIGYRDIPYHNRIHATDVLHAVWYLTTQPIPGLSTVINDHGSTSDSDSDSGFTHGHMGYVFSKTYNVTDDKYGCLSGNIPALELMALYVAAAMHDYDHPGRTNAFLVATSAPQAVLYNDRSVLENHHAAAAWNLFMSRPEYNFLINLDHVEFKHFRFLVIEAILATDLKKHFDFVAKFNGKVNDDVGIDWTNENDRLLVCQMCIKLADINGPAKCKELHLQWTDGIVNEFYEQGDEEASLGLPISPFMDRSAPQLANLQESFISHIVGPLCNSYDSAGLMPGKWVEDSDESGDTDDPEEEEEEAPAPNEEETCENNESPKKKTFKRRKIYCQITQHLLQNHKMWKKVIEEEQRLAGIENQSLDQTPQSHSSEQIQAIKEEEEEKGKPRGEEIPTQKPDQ

Histamine H3 receptor = Histamine H3 receptor (Homo sapiens, UniProt Q9Y5N1)
Histamine H3 receptor, sequence (Q9Y5N1 whole entry): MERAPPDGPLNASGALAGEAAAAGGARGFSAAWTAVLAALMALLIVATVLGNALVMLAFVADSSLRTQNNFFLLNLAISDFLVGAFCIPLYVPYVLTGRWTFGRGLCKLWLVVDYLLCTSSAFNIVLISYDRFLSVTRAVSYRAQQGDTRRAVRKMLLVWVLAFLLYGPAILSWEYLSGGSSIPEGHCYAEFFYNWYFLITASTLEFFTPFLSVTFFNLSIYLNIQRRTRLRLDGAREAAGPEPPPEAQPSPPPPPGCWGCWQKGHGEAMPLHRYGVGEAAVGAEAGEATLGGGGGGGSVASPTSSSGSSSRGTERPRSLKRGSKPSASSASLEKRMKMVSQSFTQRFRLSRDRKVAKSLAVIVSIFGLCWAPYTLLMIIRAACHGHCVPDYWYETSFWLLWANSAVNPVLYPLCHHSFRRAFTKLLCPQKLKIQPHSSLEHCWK

Acetylcholinesterase = Acetylcholinesterase (Homo sapiens, UniProt P22303); assay type: functional
Acetylcholinesterase, sequence (P22303 whole entry): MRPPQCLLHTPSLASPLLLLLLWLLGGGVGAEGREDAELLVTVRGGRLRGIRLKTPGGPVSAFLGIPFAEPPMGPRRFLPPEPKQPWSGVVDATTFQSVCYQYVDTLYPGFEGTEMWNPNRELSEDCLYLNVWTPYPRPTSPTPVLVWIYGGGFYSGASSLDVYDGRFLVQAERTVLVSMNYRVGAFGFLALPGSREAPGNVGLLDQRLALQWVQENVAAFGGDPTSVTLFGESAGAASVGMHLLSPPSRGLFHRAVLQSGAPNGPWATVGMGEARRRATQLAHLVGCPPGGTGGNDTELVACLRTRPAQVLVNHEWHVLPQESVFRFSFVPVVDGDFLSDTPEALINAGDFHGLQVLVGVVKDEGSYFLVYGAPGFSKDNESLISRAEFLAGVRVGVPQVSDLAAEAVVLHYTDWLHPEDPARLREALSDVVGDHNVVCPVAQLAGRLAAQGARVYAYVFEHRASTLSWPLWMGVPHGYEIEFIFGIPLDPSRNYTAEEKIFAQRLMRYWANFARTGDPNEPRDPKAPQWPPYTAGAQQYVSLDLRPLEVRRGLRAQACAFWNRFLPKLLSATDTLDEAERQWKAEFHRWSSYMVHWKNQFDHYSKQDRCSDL

[6] = biological target: T3, Alpha-1A adrenergic receptor; assay type: functional, cell-based; remark: listed apart in the source
Adenosine receptor A3 = biological target: T4, Adenosine receptor A3 (Homo sapiens, UniProt P0DMS8)
T4 sequence (P0DMS8 whole entry): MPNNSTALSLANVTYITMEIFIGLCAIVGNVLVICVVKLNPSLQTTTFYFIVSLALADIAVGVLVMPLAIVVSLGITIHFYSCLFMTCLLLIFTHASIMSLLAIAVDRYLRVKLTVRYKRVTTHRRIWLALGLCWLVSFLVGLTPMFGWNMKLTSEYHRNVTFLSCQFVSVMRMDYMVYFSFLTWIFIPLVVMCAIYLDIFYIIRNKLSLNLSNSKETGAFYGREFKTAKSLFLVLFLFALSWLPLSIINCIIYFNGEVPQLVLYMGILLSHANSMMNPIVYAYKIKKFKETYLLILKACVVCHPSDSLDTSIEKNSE

Measured: AC50
Also: assay procedure not described here.

Nc1ccn(C[C@@H](CO)OCP(=O)(O)O)c(=O)n1 [CIDOFOVIR]
> 30 µM: all assays above

CC(C)(Oc1ccc(C(=O)c2ccc(Cl)cc2)cc1)C(=O)O [FENOFIBRIC ACID]
> 3 µM: [3]
> 30 µM: all other assays above

CN1C(C(=O)Nc2ccccn2)=C(OC(=O)/C=C/c2ccccc2)c2ccccc2S1(=O)=O [PIROXICAM CINNAMATE]
> 10 µM: [2]
> 30 µM: all other assays above

CCn1c(=O)c2c(nc(/C=C/c3ccc(OC)c(OC)c3)n2C)n(CC)c1=O [ISTRADEFYLLINE]
2.77 µM: [3]
> 10 µM: Adenosine receptor A3
> 30 µM: all other assays above

C#C[C@]1(OC(C)=O)CC[C@H]2[C@@H]3CCC4=CC(=O)CC[C@@H]4[C@H]3CC[C@@]21C [NORETHINDRONE ACETATE]
9.74 µM: Thromboxane A2 receptor
5.91 µM: [6]
0.838 µM: Adenosine receptor A3
> 30 µM: all other assays above

COc1cccc2c1C(=O)c1c(O)c3c(c(O)c1C2=O)C[C@@](O)(C(=O)CO)C[C@@H]3O[C@H]1C[C@H](N)[C@H](O)[C@H](C)O1 [DOXORUBICIN]
5.63 µM: [1]
> 3 µM: Thromboxane A2 receptor
> 30 µM: all other assays above

Cc1cnc(C(=O)O)c[n+]1[O-] [ACIPIMOX]
> 30 µM: all assays above

CO[C@H]1/C=C/O[C@@]2(C)Oc3c(C)c(O)c4c(c3C2=O)C2=NC3(CCN(CC(C)C)CC3)NC2=C(NC(=O)/C(C)=C\C=C\[C@H](C)[C@H](O)[C@@H](C)[C@@H](O)[C@@H](C)[C@H](OC(C)=O)[C@@H]1C)C4=O [RIFABUTIN]
> 30 µM: all assays above

CC(O)(CC(=O)O)CC(=O)O [MEGLUTOL]
18 µM: [6]
13.8 µM: Thromboxane A2 receptor
> 30 µM: all other assays above

CC(=O)OCC(=O)[C@@]1(OC(C)=O)[C@@H](C)C[C@H]2[C@@H]3C[C@H](F)C4=CC(=O)C=C[C@]4(C)[C@@]3(F)[C@@H](O)C[C@@]21C [DIFLORASONE DIACETATE]
> 30 µM: all assays above

CCCCC(=O)O[C@H]1CC[C@H]2[C@@H]3CCc4cc(O)ccc4[C@H]3CC[C@]12C [ESTRADIOL VALERATE]
6.74 µM: Adenosine receptor A3
> 10 µM: [3]
23.9 µM: [5]
23.1 µM: Thromboxane A2 receptor
> 30 µM: all other assays above

Oc1ccc(OCc2ccccc2)cc1 [MONOBENZONE]
> 30 µM: all assays above

NC(=O)N/N=C/c1ccc([N+](=O)[O-])o1 [NITROFURAZONE]
29.8 µM: [5]
> 30 µM: all other assays above

CC(C)Cc1ccc(C(C)C(=O)OCc2ccccn2)cc1 (stereo not drawn) [IBUPROFEN PICONOL]
15.8 µM: Adenosine receptor A3
> 30 µM: all other assays above

N[C@@H](Cc1ccc(N(CCCl)CCCl)cc1)C(=O)O
20.6 µM: Mu-type opioid receptor
4.8 µM: [1]
20 µM: Acetylcholinesterase
> 30 µM: all other assays above

Cc1ccc2c([nH]c(=O)c3c(=O)cc(C(=O)OCCC(C)C)oc32)c1C
6.76 µM: Acetylcholinesterase
0.0521 µM: Adenosine receptor A3
23 µM: [1]
> 30 µM: all other assays above

Cc1ncc(CO)c(CO)c1O [PYRIDOXINE]
> 30 µM: all assays above

C[C@H]1C[C@H]2[C@@H]3CCC4=CC(=O)C=C[C@]4(C)[C@@]3(F)[C@@H](O)C[C@]2(C)[C@@]1(O)C(=O)CO [BETAMETHASONE]
> 30 µM: all assays above

From ChEMBL document CHEMBL5291721, “A preclinical secondary pharmacology resource illuminates target-adverse drug reaction associations of marketed drugs” (Nat Commun, 2023)
